Laboratory results reported in US20180087027A1, “METHOD FOR […] OF HUMAN MESENCHYMAL STEM CELLS” (SEOUL NATIONAL UNIVERSITY HOSPITAL, priority 2015, published 2018).

Tests used:
Assay type in all cases: cell-based
[1] = test system: Oct4 protein in human MSCs; test: Western blotting of Oct4 protein expression in human MSCs treated with ET-1
Procedure: To determine a level of expression of an Oct4 protein in human MSCs when the human MSCs were treated with ET-1, human MSCs purchased from Lonza were treated with an increasing concentration (0, 0.0125, 0.025, 0.125, and 0.25 μg/mL) of ET-1, and a level of protein expression was determined through western blotting.

[2] = test system: human MSCs; test: Real time gDNA PCR comparing length of telomeres in human MSCs treated with ET-1; conditions: 0.025 μg/mL ET-1, medium replaced after 24 hours, gDNA collected after 3 days; FIG. 3
Procedure: To check a change in a length of telomeres in human MSCs when the human MSCs were treated or were not treated with ET-1, the human MSCs were prepared so that the cells reached a confluency of 60% on a 60 mm plate. Before the human MSCs were treated with ET-1, a culture broth was replaced with a fresh culture broth. Thereafter, the human MSCs were treated with 0.025 μg/mL of ET-1, and the medium was replaced with a fresh culture broth after 24 hours. After 3 days, gDNA samples were collected. Then, real time gDNA PCR was performed using the samples to compare the lengths of the telomeres by means of ET-1 treatment.

[3] = test system: Oct4 mRNA in human MSCs; test: Real time PCR of Oct4 mRNA expression in human MSCs treated with ET-1; conditions: RNA extracted 24 hours after ET-1 treatment, FIG. 2
Procedure: To compare levels of mRNA expression of Oct4 in human MSCs treated with ET-1, the human MSCs were treated with ET-1, and RNA was extracted therefrom after 24 hours to synthesize complementary cDNA. Thereafter, real time PCR was performed using the complementary cDNA as a template and Oct4 amplification primers set forth in the following SEQ ID NOs: 1 and 2.
SEQ ID NO: 1: 5′-gaggcaacct ggagaatttg-3′ (Oct4 forward primer)
SEQ ID NO: 2: 5′-tagcctgggg taccaaaatg-3′ (Oct4 reverse primer)

[4] = test system: human MSCs; test: G-banding karyotype analysis of chromosomal stability in human MSCs treated with ET-1; conditions: human MSCs treated with ET-1 as in Example 2, FIG. 4
Procedure: For this purpose, the G-banding karyotype analysis method known as a basic test method for evaluating genomic stability was performed. The G-banding karyotype analysis method is a method of pre-treating stem cells with trypsin, which is a proteolytic enzyme, and staining chromosomes with a Giemsa stain. In this case, euchromatin is stained with a light color, and heterochromatin is stained with a dark color. The G-banding karyotype analysis method is the test method most often used for chromosomal analysis because many staining bands are generated.

## endothelin-1 [ET-1]
[1]; ET-1 at a concentration of 0.025 μg/mL, FIG. 1
  level of protein expression of Oct4 across the tested ET-1 concentrations: highest level of protein expression
[1]; human MSCs (Lonza) treated with 0, 0.0125, 0.025, 0.125 and 0.25 μg/mL ET-1, FIG. 1
  level of protein expression of the stemness marker Oct4: significantly increased
[2]
  lengths of the telomeres versus MSCs not treated with ET-1: extended approximately three-fold or more
[3]
  mRNA expression of Oct4: increased
[4]
  chromosomal stability (chromosomal dysfunction): chromosomal dysfunction was not induced
